pKi: −log10 of the molar value.
Columns and labels:
MMP-1 (collagenase-1) = biological target: T1, MMP-1 (collagenase-1) (Homo sapiens, UniProt P03956); settings: read-out: MMP-1 (collagenase-1) Kl; cited from earlier work
T1 sequence (P03956 100-469): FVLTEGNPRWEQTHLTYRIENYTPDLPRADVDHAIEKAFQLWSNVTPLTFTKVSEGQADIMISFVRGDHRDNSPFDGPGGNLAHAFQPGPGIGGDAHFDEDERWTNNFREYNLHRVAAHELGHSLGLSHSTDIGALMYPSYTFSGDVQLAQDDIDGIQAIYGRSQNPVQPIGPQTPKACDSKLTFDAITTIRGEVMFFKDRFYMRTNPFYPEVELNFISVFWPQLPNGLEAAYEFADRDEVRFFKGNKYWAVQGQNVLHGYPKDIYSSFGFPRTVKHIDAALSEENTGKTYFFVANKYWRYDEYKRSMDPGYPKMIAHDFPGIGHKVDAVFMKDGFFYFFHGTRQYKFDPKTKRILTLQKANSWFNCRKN

MMP-3 (stromelysin) = MMP-3 (stromelysin) (Homo sapiens, UniProt P08254); settings: read-out: MMP-3 (stromelysin) Kl; cited from earlier work
Sequence of MMP-3 (stromelysin) (P08254 100-477, species assumed): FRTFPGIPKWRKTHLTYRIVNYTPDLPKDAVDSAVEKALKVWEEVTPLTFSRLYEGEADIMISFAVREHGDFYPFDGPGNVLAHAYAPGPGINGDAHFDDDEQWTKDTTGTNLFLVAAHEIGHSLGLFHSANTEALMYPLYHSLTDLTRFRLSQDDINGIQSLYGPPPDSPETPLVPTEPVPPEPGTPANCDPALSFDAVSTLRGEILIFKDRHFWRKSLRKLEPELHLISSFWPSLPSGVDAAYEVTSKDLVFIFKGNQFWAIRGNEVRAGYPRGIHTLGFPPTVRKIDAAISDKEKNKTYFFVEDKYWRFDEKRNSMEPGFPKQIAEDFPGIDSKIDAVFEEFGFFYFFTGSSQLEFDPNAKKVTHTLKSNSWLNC

MMP-7 = biological target: T2, MMP-7 (Homo sapiens, UniProt P09237); settings: read-out: MMP-7 Kl; cited from earlier work
T2 sequence (P09237 95-267): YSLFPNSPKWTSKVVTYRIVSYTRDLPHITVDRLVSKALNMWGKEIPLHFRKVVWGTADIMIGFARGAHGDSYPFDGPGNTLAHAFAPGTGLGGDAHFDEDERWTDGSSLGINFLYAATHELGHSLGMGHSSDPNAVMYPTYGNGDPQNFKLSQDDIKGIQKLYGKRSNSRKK

MMP-2 (gelatinase A) = biological target: T3, MMP-2 (gelatinase A) (Homo sapiens, UniProt P08253); settings: read-out: MMP-2 (gelatinase A) Kl; cited from earlier work
T3 sequence (P08253 110-660): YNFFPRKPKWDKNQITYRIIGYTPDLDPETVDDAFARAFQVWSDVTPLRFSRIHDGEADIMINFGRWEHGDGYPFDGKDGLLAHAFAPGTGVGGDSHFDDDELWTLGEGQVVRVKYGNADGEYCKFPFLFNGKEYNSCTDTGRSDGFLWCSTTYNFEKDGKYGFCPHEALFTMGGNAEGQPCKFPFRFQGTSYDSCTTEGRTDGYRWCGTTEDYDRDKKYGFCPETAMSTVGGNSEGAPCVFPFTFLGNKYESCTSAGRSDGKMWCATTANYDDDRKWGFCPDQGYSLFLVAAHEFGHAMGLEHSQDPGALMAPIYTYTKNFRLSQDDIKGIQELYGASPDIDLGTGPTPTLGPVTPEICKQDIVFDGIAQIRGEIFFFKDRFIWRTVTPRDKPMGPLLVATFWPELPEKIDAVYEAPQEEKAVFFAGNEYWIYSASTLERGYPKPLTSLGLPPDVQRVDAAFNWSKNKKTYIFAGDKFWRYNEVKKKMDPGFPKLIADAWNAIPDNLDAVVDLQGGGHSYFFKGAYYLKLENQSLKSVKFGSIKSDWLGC

MMP-9 (gelatinase B) = MMP-9 (gelatinase B) (Homo sapiens, UniProt P14780); settings: read-out: MMP-9 (gelatinase B) Kl; cited from earlier work
Sequence of MMP-9 (gelatinase B) (P14780 94-707, species assumed): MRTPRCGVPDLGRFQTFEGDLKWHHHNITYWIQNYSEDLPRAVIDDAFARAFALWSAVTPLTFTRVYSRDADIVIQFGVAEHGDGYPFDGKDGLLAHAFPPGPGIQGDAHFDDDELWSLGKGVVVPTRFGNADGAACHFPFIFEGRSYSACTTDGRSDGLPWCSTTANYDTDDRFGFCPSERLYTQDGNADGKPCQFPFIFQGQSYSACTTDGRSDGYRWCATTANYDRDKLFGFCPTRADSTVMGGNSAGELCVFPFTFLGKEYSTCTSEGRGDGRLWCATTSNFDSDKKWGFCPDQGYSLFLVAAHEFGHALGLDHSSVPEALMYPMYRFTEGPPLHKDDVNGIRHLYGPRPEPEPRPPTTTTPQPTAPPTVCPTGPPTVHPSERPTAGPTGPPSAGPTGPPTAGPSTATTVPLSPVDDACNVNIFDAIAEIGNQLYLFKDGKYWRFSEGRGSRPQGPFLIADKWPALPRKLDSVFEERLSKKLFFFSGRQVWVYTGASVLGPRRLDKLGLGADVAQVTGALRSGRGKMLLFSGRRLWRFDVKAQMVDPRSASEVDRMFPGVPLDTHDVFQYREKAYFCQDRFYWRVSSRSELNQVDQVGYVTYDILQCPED

[1] = Solubility in liquid formulation; assay type: physicochemical; settings: depending on the formulation, read-out: soluble in liquid formulation at levels up to
[2] = system: murine model of cigarette smoke-related emphysema; experiment: Murine model of cigarette smoke-related emphysema: lung morphometry, mean linear intercept (Lm); assay type: in vivo; settings: smoking mice
Method: Five groups of animals were studied. […] Group 1 animals (32 animals) were control non-smoking animals. Group 2 animals (32 animals) were administered aerosolized PBS (10 ml/5 animals) followed by cigarette smoke. […] All adult mice (12 weeks of age at initiation) were exposed to two cigarettes per day, 6 days/wk for up to 6 months. Within each treatment group there were 3 timepoints for analysis: 1 week, 3 months, and 6 months. […] Delivery proceeded until the nebulizer ran dry (about 30 minutes). […] All were prepared in sterile saline. Vehicle control animals received sterile saline only. In each animal, the right lung was removed and used for fixation/inflation and paraffin embedding to study morphometry, to determine mean linear intercept (Lm), which is the distance between the walls of alveoli, and which increases as proteases (e.g., elastase, metalloproteases) break down pulmonary structure.

[3] = system: murine model of cigarette smoke-related emphysema; experiment: Murine model of cigarette smoke-related emphysema: inflammatory cells in bronchoalveolar lavage (BAL); assay type: in vivo; settings: smoking mice
Method: Five groups of animals were studied. […] Group 1 animals (32 animals) were control non-smoking animals. Group 2 animals (32 animals) were administered aerosolized PBS (10 ml/5 animals) followed by cigarette smoke. […] All adult mice (12 weeks of age at initiation) were exposed to two cigarettes per day, 6 days/wk for up to 6 months.
Within each treatment group there were 3 timepoints for analysis: 1 week, 3 months, and 6 months. After one week, 3 months, and 6 months on study, 10 animals, 10 animals, and 12 animals respectively, from each group were sacrificed and analytical work on lungs and lung samples was performed (see below).
10 mL of sterile saline or drug was placed in the nebulizer and delivered to each group of five animals. Delivery proceeded until the nebulizer ran dry (about 30 minutes).
All were prepared in sterile saline. Vehicle control animals received sterile saline only.
The left lung was subjected to bronchoalveolar lavage (BAL) to determine levels of the inflammatory cell types macrophages and neutrophils, which were counted by morphology. BAL samples were collected using 0.5 mL rinses of the left lung.

[4] = system: MMP activity (assay designed primarily to detect MMP-9 activity); experiment: MMP activity of BAL samples from smoking mice treated with nebulized ilomastat; assay type: in vivo; settings: for MMP Activity of BAL sample (mAU/min): drug treated (ilomastat 100 ug/mL nebulized daily), individual mouse samples
Method: The 2-week study was a repeat of the 1-week study but used 10 animals/group.
At the end of each study, BAL samples were obtained from the lungs of each animal using established procedures and each sample was tested for MMP activity using an assay designed primarily to detect MMP-9 activity.
• 1. 150 μL of MMP Reagent Mix was added to each well. The reagent mix consisted of the appropriate dilutions of previously prepared stock solutions in order to yield the following final concentrations in 200 μL final volume/well: • HEPES stock (50 mM final) • CaCl2 stock (10 mM final) • Ellmans Reagent stock (1.25 mM final) • Substrate (Bachem #H7145) stock (475 μM final) • Q.S. with dH2O • 2. Microtiter plate was placed in the 30° C. incubator for 15 min. • 3. 50 μL/well of each BAL sample was added into the appropriate wells • 4. 50 μL/well of vehicle control buffer was added to blank well. • 5. 48 μL/well of vehicle control buffer and 2 μL of MMP-9 (20 ng, CalBiochem #444231) was added to the control well. • 6. Plate was placed in VersaMax Microtiter Plate Reader which was pre-equilibrated to 30° C. • 7. Abs410 was read every 5-6 min for 3 hrs Results and Conclusions: […]

sheep model for asthma = experiment: Sheep model for asthma: carbachol challenge, DRC/PC 400%; assay type: in vivo; settings: 30 μg dose, 24 hours after administration
Method: Phosphate buffered saline (PBS) (control) • 2. […] Results:
DRC/PC %400 refers to the amount of carbochol required to induce a 400% change in airway hyperresponsiveness. The amount required is measured as carbachol breath units (BU); the aerosol concentration of carbachol is fixed and the animal continues to inhale until the appropriate response in obtained. Thus, a higher value indicates a protective effect against an asthmatic reaction.

human MMP-9 = experiment: MMP-9 fluorescent activity assay in induced sputum samples; assay type: biochemical
Method: Induced sputum (IS) samples were collected from 22 healthy smokers (HS) and 19 patients with clinical evidence of chronic obstructive pulmonary disease (COPD) (Inclusion criteria: FER<0.7 and FEV1 % Predicted 30-80%). The IS was processed using dithiothreitol as previously described by Pavord et al. (1997) Thorax 52, 498-501. 15 randomly selected IS were used for inhibitor studies (COPD n=7; HS n=8).
MMP-9 activity in IS was measured using a commercially available human MMP-9 fluorescent activity assay (Fluorokine® E, R&D Systems, Europe, UK). Following binding of MMP-9 (92, 82, 62 kDa forms) to an immobilized monoclonal antibody, a fluorogenic substrate linked to a quencher molecule was added. Any active MMP-9 cleaved the peptide linkers between the fluorophore and the quencher molecule allowing measurement of the fluorescence using a fluorimeter (Spectrafluor Plus, Tecan, UK). For inhibitor studies, the IS samples were incubated for 30 minutes at room temperature with the inhibitors prior to addition of the synthetic substrate.

[5] = biological target: MMP-12 (macrophage metalloelastase, ME) (Homo sapiens, UniProt P39900); settings: read-out: MMP-12 (macrophage metalloelastase, ME) Kl; cited from earlier work
Sequence of MMP-12 (macrophage metalloelastase, ME) (P39900 106-470, species assumed): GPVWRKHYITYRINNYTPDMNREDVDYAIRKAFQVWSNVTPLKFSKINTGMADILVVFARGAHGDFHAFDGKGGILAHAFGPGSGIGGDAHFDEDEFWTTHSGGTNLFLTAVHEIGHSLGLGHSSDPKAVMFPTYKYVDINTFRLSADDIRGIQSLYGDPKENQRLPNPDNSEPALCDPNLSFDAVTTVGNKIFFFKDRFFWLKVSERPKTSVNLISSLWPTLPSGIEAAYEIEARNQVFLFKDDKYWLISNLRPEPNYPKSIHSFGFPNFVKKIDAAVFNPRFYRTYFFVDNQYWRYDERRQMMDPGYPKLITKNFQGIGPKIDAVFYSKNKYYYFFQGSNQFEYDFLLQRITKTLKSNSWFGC

SMILES: O=C(NO)C1(CS(=O)(=O)c2ccc(Oc3ccc(Cl)cc3)cc2)CCOCC1 [RS-130,830]
- pKi (MMP-1 (collagenase-1)): 6.23
- pKi (MMP-3 (stromelysin)): 8.05
- pKi (MMP-7): 5.92

SMILES: CN1C(=O)N(C[C@@H](C(=O)NO)[C@@H](CC2CCCC2)C(=O)N2CCCCC2)C(=O)C1(C)C [Ro 32-3555]
- pKi (MMP-2 (gelatinase A)): 6.81
- pKi (MMP-9 (gelatinase B)): 7.23

SMILES: CNC(=O)[C@H](Cc1c[nH]c2ccccc12)NC(=O)[C@@H](CC(=O)NO)CC(C)C [ilomastat, N-[2(R)-2(hydroxyamidocarbonylmethyl)-4-methylpentanoyl]-L-tryptophan methylamide]
- solubility [1]: ≤ 15 mg/mL
- % protection (Lm) ([2]; ilomastat dose 1 (100 ug/mL)): 83%
- Lm vs. non-smokers (%) ([2]; ilomastat dose 1 (100 ug/mL)): 2.6%
- % protection (Lm) ([2]; ilomastat dose 2 (50 ug/ml)): 96%
- Lm vs. non-smokers (%) ([2]; ilomastat dose 2 (50 ug/ml)): 0.6%
- % protection (Lm) ([2]; ilomastat dose 3 (10 ug/ml)): 42%
- Lm vs. non-smokers (%) ([2]; ilomastat dose 3 (10 ug/ml)): 8.7%
- Macrophages, cells per ml of BAL fluid ([3]; ilomastat dose 1 (100 ug/mL)): 1000 cells per ml
- Neutrophils, cells per ml of BAL fluid ([3]; ilomastat dose 1 (100 ug/mL)): 100 cells per ml
- Macrophages, cells per ml of BAL fluid ([3]; ilomastat dose 2 (50 ug/ml)): 1500 cells per ml
- Neutrophils, cells per ml of BAL fluid ([3]; ilomastat dose 2 (50 ug/ml)): 220 cells per ml
- Macrophages, cells per ml of BAL fluid ([3]; ilomastat dose 3 (10 ug/ml)): 2500 cells per ml
- Neutrophils, cells per ml of BAL fluid ([3]; ilomastat dose 3 (10 ug/ml)): 50 cells per ml
- MMP activity of BAL samples, in words ([4]; 1-week study, all five treated mouse samples): no detectable MMP activity
- MMP activity of BAL samples, in words ([4]; 2-week study, all ten treated mouse samples): no detectable MMP activity
- MMP Activity of BAL sample (mAU/min) ([4]; 2 week study): 0 mAU/min
- MMP Activity of BAL sample (mAU/min) ([4]; Pilot study (1 week)): 0 mAU/min
- effect against asthmatic reaction, in words (sheep model for asthma): clear protective effect
- inhibitory effect on MMP-9 activity in induced sputum (human MMP-9; 30 uM, IS from COPD patients, p=0.249 (ns)): 9.2+/−7.2%
- inhibitory effect on MMP-9 activity in induced sputum (human MMP-9; 30 uM, IS from healthy smokers (HS), p=0.015): 22.6+/−6.7%
- inhibitory effect on MMP-9 activity in induced sputum (human MMP-9; 100 uM, IS from COPD patients, p=0.004): 42.5+/−9.3%
- inhibitory effect on MMP-9 activity in induced sputum (human MMP-9; 100 uM, IS from healthy smokers (HS), p=0.008): 39.4+/−6.3%
- pKi (MMP-3 (stromelysin)): 7.57 to 7.59
- pKi [5]: 9.40 to 9.70

From patent US20050107306A1, “Treatment of respiratory disease associated with matrix metalloproteases by inhalation of synthetic matrix metalloprotease inhibitors” (priority 2003, published 2005)
